Results as given in patent publication US20040072801A1, “Sterols bearing pendant allosteric effectors of hemoglobin, and uses thereof” (priority 2002, published 2004).
“Also recorded” adds a separate entry of the source.

What was measured:
[1] = system: human RBCs in whole blood; assay: P50 of RBCs after in vitro incubation of human whole blood with effector (Hemox Analyzer); conditions: for P50 Increase % / P50 mm HG EFF:WB: EFF:WB 1:1.5; for lysis of red blood cells (hemolysis): tested on whole blood
Description: P50 of effector incubated with RBC were recorded using a Hemox Analyzer and a HAS software from TCS Scientific (New Hope, Pa.). The reading solution consisted of an aliquot of RBCs to meet instrument parameters and 20 mM Hemox buffer (Osm=310±10 mOsM, pH=7.1-7.2) at 37° C.
Incubation: Whole blood (75-300 μL) was incubated with 200 μL of effector at 37° C. for 5-10 min.
Washes: After incubation of whole blood with/without effector, blood cells were washed four times with Saline buffer or HBS (BSA) by centrifugal pelleting to remove exogenous effector and to evaluate hemolysis. After final centrifugation, pellet was not resuspended.
Blood Oxygen Dissociation Reading: Blood Oxygen Dissociation of samples were determined using a Hemox Analizer Model B (TCS Medical Products Company, New Hope, Pa.).
The P50s were calculated from the Dissociation Curves compared to same day control P50.

Free Hemoglobin = Free Hemoglobin (Homo sapiens, UniProt P68871); assay: P50 of free hemoglobin with effector (Table 1); assay type: biochemical; conditions: ratio 1:1 (2.5 mM:2.5 mM), pH 7.1-7.2, 37° C.
Sequence of Free Hemoglobin (P69905 2-142 partner limits assumed): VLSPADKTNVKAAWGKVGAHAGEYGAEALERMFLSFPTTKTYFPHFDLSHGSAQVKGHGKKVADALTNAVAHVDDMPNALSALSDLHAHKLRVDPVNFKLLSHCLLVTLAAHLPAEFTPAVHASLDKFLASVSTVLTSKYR
Sequence of Free Hemoglobin (P68871 2-147 limits assumed): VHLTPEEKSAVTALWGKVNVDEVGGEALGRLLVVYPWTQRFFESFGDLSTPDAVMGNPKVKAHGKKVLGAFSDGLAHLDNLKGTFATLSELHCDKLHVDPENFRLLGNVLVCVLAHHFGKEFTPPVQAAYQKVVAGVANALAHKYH
Source text: The sample chamger contained:

C57B1/6 mice [2] = assay: Tolerability and pharmacodynamics of SV184 and SV192 after iv injection; assay type: in vivo, mouse; conditions: for Number of mice died: 2 mice injected
C57B1/6 mice [3] = assay: as above; assay type: in vivo, mouse
Description: The tolerability and pharmacodynamics of the compounds SV184 and SV192 were tested in a small number of C57B1/6 mice. Mice receiving the whole volume of 200 μL of (30 mM) effector solution died immediately after injection or during injection (injection time 10-20 min). Eight mice receiving less than 200 μL of the compound solution survived. These mice were fast breathing and shaking, but recovered after 4 hours. […] Therefore, new derivatives were synthesized in our labs.

`CC(C)CCCC(C)C1CCC2C3CC=C4CC(OC(=O)OP(=O)(O)OC5C(OP(=O)(O)O)C(OP(=O)(O)O)C(OP(=O)(O)O)C(OP(=O)(O)O)C5OP(=O)(O)O)CCC4(C)C3CCC12C.CN(C)C1CCCCC1.CN(C)C1CCCCC1.CN(C)C1CCCCC1.CN(C)C1CCCCC1.CN(C)C1CCCCC1.CN(C)C1CCCCC1.CN(C)C1CCCCC1.CN(C)C1CCCCC1` (stereo not drawn) [SV192, Inositol hexaphosphate-cholesteroloxycarbonyl, octa N,N-dimethyl-cyclohexylammonium salt] was tested, and the “lysis of RBC on incubation” value ([1]; human WB, EFF:WB 1:0.375, 224 mOsM, 30 mM) was “Lyses; also recorded: lysis”, the “P50 Increase %” value ([1]; human WB, 224 mOsM, 30 mM) was 26% and the “P50 mm HG EFF:WB” value ([1]; human WB, 224 mOsM, 30 mM) was 29.5 mm Hg. The “P50 Increase %” value ([1]; human WB, 310 mOsM, 30 mM) was 25%, the “P50 mm HG EFF:WB” value ([1]; human WB, 310 mOsM, 30 mM) was 30 mm Hg and the “lysis of the RBC” value ([1]; physiological or nearly physiological osmotic pressure, in vitro whole blood) was “no lysis”. For the same molecule, the “lysis of red blood cells (hemolysis)” value ([1]; listed as 2b) was “did not trigger hemolysis”, the “lysis of red blood cells (hemolysis)” value ([1]; listed as IHP-cholesterol derivative with N,N-dimethyl-cyclohexylammonium countercations) was “without any detectable cell lysis” and the “P50 mm Hg EFF:WB (fHb)” value (Free Hemoglobin) was 32.5 mm Hg. For the same molecule, the “Shift of P50 %” value (C57B1/6 mice [2]; iv 135 μL of 30 nM) was less than 3%, the “Number of mice died” value (C57B1/6 mice [2]; iv 135 μL of 30 mM) was 0 and the “Number of mice died” value (C57B1/6 mice [2]; iv 165 μL of 30 mM) was 2. The “Number of mice died” value (C57B1/6 mice [3]; iv 200 μL of 30 mM, 1 mouse injected) was 1, the “toxicity upon iv injection in mice” value (C57B1/6 mice [3]; iv, 30 mM effector solution) was “high level of toxicity” and the “shift of P50 in blood of surviving mice” value (C57B1/6 mice [3]; less than 200 μL iv, blood taken 4 and 24 hours after injection) was “did not show a significant shift of P50”.
